Measured values published in patent US20150010474A1, “Compounds And Methods For Selective Imaging And/Or Ablation” (Auckland Uniservices Limited, priority 2011, published 2015).

Tests used:
[1] = system: HCT116 wild type (WT) cancer cells; assay: Inhibition of cell proliferation, low cell density IC50 assay; type: cell-based; details: Homo sapiens, HCT-116; 4 hour drug exposure, washing and regrowth for 5 days
Protocol: (§1) IC50 values were determined as the concentration of prodrug required to inhibit cell growth by 50% of untreated controls following 4 hour drug exposure, with washing and regrowth for 5 days. WT:NfsA ratios were determined as the WT IC50/NfsA IC50.

[2] = system: HCT116 cells overexpressing the nitroreductase NfsA from E. coli; assay: as above; type: cell-based, human; details: for IC50: Homo sapiens, HCT-116, 4 hour drug exposure, washing and regrowth for 5 days; for WT:NfsA: WT IC50/NfsA IC50
Protocol: as §1

NfrA (B.s) = biological target: T1, NfrA (B.s) (Bacillus subtilis, UniProt P39605); assay: Initial rate of metabolism by purified recombinant bacterial nitroreductase (NADPH consumption, UV/Vis); type: biochemical; details: compound 500 μM, NADPH 200 μM, 10 mM Tris-Cl pH 7.0; μmol NADPH consumed per mg enzyme per minute
T1 construct: made in house
Protocol: (§2) The relative initial rates of reductive metabolism of the nitro moiety of test compounds by bacterial nitroreductase's can be measured experimentally by incubating the test compound at near-saturating concentration (determined empirically) with the purified recombinant bacterial nitroreductase enzymes in the presence of NADPH co-factor. UV/Vis spectroscopy is used to measure consumption of the co-factor, indicating metabolism of the test compound by the nitroreductase.
(§3) Compounds 67, 93 and 97 (500 μM) were added to NADPH (200 μM) in 10 mM Tris-Cl pH 7.0. Reactions were initiated by enzyme addition (between 5 and 20 μg per reaction). Rates represent μmol of NADPH consumed per mg enzyme added per minute.

NfsA (E.c) = biological target: T2, NfsA (E.c) (Escherichia coli, UniProt P17117); assay: as above; type: biochemical; details: compound 500 μM, NADPH 200 μM, 10 mM Tris-Cl pH 7.0; μmol NADPH consumed per mg enzyme per minute
T2 construct: made in house
Protocol: as §2, §3

NfsB (E.c) = biological target: T3, NfsB (E.c) (Escherichia coli, UniProt P38489); assay: as above; type: biochemical; details: compound 500 μM, NADPH 200 μM, 10 mM Tris-Cl pH 7.0; μmol NADPH consumed per mg enzyme per minute
T3 construct: made in house
Protocol: as §2, §3

YcnD (B.s) = biological target: T4, YcnD (B.s) (Bacillus subtilis, UniProt P94424); assay: as above; type: biochemical; details: compound 500 μM, NADPH 200 μM, 10 mM Tris-Cl pH 7.0; μmol NADPH consumed per mg enzyme per minute
T4 construct: made in house
Protocol: as §2, §3

[3] = system: NTR over-expressing E. coli SOS-R2; assay: Growth Inhibition assay in 58-membered NTR over-expression library; type: cell-based, Escherichia coli; details: 4 h incubation
[4] = system: bacterial nitroreductase over-expressing E. coli strains; assay: IC50 (turbidity) in selected NTR over-expressing library strains; type: cell-based, Escherichia coli; details: 4 h post-challenge, serial dilution
Protocol: FIG. 2.3 illustrates the IC50 of compound 67 for selected NTR library strains (i.e. the concentration of compound 67 that yielded only 50% turbidity relative to an unchallenged control 4 h post-challenge, in replicate cultures across a serial dilution of compound 67). The strains selected were all those observed to have SOS activity above the empty plasmid control (“Empty”) in response to challenge with compound 67 as illustrated in FIG. 2(B), plus NfsB (E.c) as a negative control. For the IC50 assays, 100 μl of overnight cultures were used to inoculate 2 ml M63 minimal medium supplemented with 100 μg·ml^−1 ampicillin and 50 μM IPTG and incubated at 30° C., 200 rpm for 3.5 h. 40 μL aliquots from each culture were then added to individual wells of a sterile 384 well plate, each already containing 40 μl of ampicillin and IPTG-supplemented M63 medium and a dilution series of compound 67 as indicated on the X-axis of panel A. A. Raw growth curves. Each NTR over-expression strain was tested at least in duplicate (independent replicates), with the exception of NfsB (E.c), which was only measured once. Culture turbidity was monitored by optical density at 600 nm 4 h post-challenge. B. IC50 values calculated by comparison of the challenged cells with the unchallenged control for each strain, after subtracting the initial absorbance values (t=0 h), using SigmaPlot 10.0 (Systat Software Inc., Richmond, Calif.). Errors are 1 standard error of the mean (SEM).
(§4) FIG. 2.4 illustrates the IC50 of compound 93 for selected NTR library strains. […] B. IC50 values calculated by comparison of the challenged cells with the unchallenged control for each strain, after subtracting the initial absorbance values (t=0 h), using SigmaPlot 10.0 (Systat Software Inc., Richmond, Calif.). […]
as §4, with “2.5” for “2.4”, “97” for “93”

[5] = system: human solid tumour xenograft NCI-H1299 (WT); assay: Hypoxia-dependent binding by ex vivo flow cytometry with pimonidazole co-staining; type: in vivo, NIH-III nude mice; details: 60 mg/kg i.p.; tumours excised after 120 minutes, single cell suspension
Protocol: FIG. 11 illustrates the absence of hypoxic-dependent binding of compound 67 and compound 93 by flow cytometry in the human solid tumour xenograft NCI-H1299, with reference to hypoxia staining by compound 15 and pimonidazole (Hypoxyprobe™) as internal standards (positive controls). NCI-H1299 WT tumours were inoculated subcutaneously onto the flank of NIH-III nude mice. When the mixed tumours reached approximately 800 mm^3, mice were dosed i.p. with 60 mg/kg of pimonidazole, and 60 minutes later dosed with either 60 mg/kg of compound 15, or 60 mg/kg of compound 67, or 60 mg/kg of compound 93. After 120 minutes the tumours were excised and enzyme digested to form a single cell suspension before fixation in ice cold 80% ethanol. Single cell immunodetection of bound adducts of compounds was performed using a monoclonal antibody (Mab1, hybridoma clone 4.3.11.3) conjugated to Alexa-488 (Ex/Em 499/519; green) for the detection of pimonidazole adducts, and monoclonal antibody ELK3-51 directly conjugated to the fluorophore CY5 (Ex/Em 650/670 nm; red) for detection of adducts formed by compound 15 or compound 67 or compound 93. The ex-vivo tumour cell samples were analysed on a Becton Dickinson FACscan flow cytometer using FACS Diva software. Integrated fluorescence measurements were recorded for 10,000 single non-debris events. Fluorescence emission was monitored at 530 nm±20 and 670-700 nm for detection of Alexa-488 and CY5 conjugated monoclonal antibodies, respectively.

[6] = system: HCT-116 cells stably over-expressing cytochrome P450 reductase (CYPOR); assay: Flow cytometry of metabolism and binding (EF5 antibody); type: cell-based, human; details: 2 h
Protocol: FIG. 4 illustrates the results of a second independent flow cytometry analysis of compound 15 and 93 metabolism and binding in wild-type HCT-116 cells, HCT-116 cells stably over-expressing cytochrome P450 reductase (CYPOR), a human one-electron reductase known to metabolise nitroheterocyclic and nitroaromatic compounds, or HCT-116 cells stably expressing the bacterial nitroreductase E. coli NfsA. 1×10^6HCT-116 cells were seeded in 6 well plates underaerobic conditions (21% O2, 5% CO2). After 2 h incubation, drug free control (wild-type HCT-116, foreground), 20 μM (wild-type HCT-116, second plot), 100 μM (wild-type HCT-116, third plot), 20 μM (HCT-116-CYPOR, forth plot), 100 μM (HCT-116-CYPOR, fifth plot) or 20 μM (HCT-116-NfsA, sixth plot) of compound 15 or 93 was added. After 2 h incubation cells were harvested and fixed with paraformaldehyde before being incubated overnight with 100 μl of 75 μg/ml EF5 CY5 conjugated antibody. Samples were then analysed on a Becton Dickinson FACscan flow cytometer.
FIG. 5 illustrates the results of flow cytometry analysis of HCT-116 cells stably over-expressing cytochrome P450 reductase (CYPOR), a human one-electron reductase known to metabolise nitroheterocyclic and nitroaromatic compounds. 1×10^6HCT-116-CYPOR cells were seeded in 6 well plates in aerobic, anoxic and 0.2% oxygen conditions designed to replicate the lower limit of pathological hypoxia observed in human tumours. After 2 h incubation, drug free control (foreground), 20 μM (middle) or 100 μM (background) of compound 15 or 67 was added. After 2 h incubation cells were harvested and fixed with paraformaldehyde before being incubated overnight with 100 μl of 75 μg/ml EF5 CY5 conjugated antibody. Samples were then analysed on a Becton Dickinson FAC scan flow cytometer.
FIG. 6 illustrates the results of flow cytometry analysis of compound 15 and 93 metabolism and binding in wild-type HCT-116 cells and HCT-116 cells stably over-expressing cytochrome P450 reductase (CYPOR), a human one-electron reductase known to metabolise nitroheterocyclic and nitroaromatic compounds. 1×10^6 HCT-116 cells were seeded in 6 well plates underanoxic conditions. After 2 h incubation, drug free control (wild-type HCT-116, foreground), 20 μM (wild-type HCT-116, second plot), 100 μM (wild-type HCT-116, third plot), 20 μM (HCT-116-CYPOR, forth plot) or 100 μM (HCT-116-CYPOR, fifth plot) of compound 15 or 93 was added. After 2 h incubation cells were harvested and fixed with paraformaldehyde before being incubated overnight with 100 μl of 75 μg/ml EF5 CY5 conjugated antibody. Samples were then analysed on a Becton Dickinson FACscan flow cytometer.

[7] = system: nfsA expressing HCT116 cells; details: 0.7 mM-hr cold EF5; cited from earlier work
[8] = cited from earlier work

T4 sequence (P94424 whole entry): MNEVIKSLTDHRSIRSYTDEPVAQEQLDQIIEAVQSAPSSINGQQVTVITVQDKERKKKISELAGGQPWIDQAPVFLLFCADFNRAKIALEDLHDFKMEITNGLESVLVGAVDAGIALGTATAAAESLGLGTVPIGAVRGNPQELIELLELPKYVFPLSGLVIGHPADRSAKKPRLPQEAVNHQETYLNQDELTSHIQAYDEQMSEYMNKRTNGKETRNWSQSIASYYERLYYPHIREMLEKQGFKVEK
T2 sequence (P17117 whole entry): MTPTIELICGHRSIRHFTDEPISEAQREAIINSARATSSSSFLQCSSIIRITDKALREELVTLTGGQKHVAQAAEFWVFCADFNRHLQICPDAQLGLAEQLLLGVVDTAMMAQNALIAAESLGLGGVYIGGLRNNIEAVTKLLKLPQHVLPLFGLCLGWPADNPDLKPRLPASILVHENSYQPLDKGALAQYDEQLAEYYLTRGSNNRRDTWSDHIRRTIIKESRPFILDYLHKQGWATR
T3 sequence (P38489 whole entry): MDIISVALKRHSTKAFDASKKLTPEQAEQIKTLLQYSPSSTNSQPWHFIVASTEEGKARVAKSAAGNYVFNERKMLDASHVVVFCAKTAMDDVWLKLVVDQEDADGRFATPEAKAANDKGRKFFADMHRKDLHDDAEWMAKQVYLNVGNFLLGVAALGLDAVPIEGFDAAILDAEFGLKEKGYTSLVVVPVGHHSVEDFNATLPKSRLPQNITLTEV
T1 sequence (P39605 whole entry): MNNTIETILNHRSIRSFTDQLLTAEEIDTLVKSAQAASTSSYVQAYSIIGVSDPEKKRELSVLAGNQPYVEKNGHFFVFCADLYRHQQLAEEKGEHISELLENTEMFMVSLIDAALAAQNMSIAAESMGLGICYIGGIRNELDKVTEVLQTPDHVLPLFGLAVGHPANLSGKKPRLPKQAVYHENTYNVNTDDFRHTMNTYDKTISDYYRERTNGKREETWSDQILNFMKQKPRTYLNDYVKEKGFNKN

## O=[N+]([O-])c1nccn1Cc1cn(C(CO)CF)nn1 (stereo not drawn) [Compound 19, reference compound]
[1]
  IC50: > 12500 µM
[2]
  IC50: 16 µM
  WT:NfsA: >781

## O=[N+]([O-])c1cn(Cc2cn(C(CO)CF)nn2)cn1 (stereo not drawn) [Compound 97, 3-fluoro-2-(4-((4-nitro-1H-imidazol-1-yl)methyl)-1H-1,2,3-triazol-1-yl)propan-1-ol]
NfrA (B.s)
  Rate of metabolism by NfrA (B.s): 3.9 µmol/min/mg
NfsA (E.c)
  Rate of metabolism by NfsA (E.c): 4.3 µmol/min/mg
NfsB (E.c)
  Rate of metabolism by NfsB (E.c): 1.4 µmol/min/mg
YcnD (B.s)
  Rate of metabolism by YcnD (B.s): 6.2 µmol/min/mg
[1]
  IC50: > 12500 µM
[2]
  IC50: 178 µM
  WT:NfsA: >70
[3]; 400 μM compound 67, 130 μM compound 93, 800 μM compound 97
  Reductive metabolism at the nitro moiety by NTR library members (NfsA and NfsB families): reductively metabolised at the nitro moiety by the majority of the NfsA and NfsB families tested
[3]; 800 μM compound 97
  Metabolism by members of the NemA nitroreductase family: Modest metabolism
[4]
  Inhibition of bacterial cell growth in NTR over-expressing strains compared to controls: Inhibition of bacterial cell growth was selectively observed
other
  melting point: 126 to 129 °C

## O=[N+]([O-])c1nccn1CC(O)CN1CCCCC1 (stereo not drawn) [pimonidazole, reference compound]
[5]
  Hypoxia-dependent binding in NCI-H1299 WT tumours, flow cytometry (FIG. 11): hypoxic cells that are detected by pimonidazole adduct retention

## O=C(Cn1ccnc1[N+](=O)[O-])NCC(F)(F)C(F)(F)F [Compound 15, 2-(2-nitro-1H-imidazol-1-yl)-N-(2,2,3,3,3-pentafluoropropyl)acetamide]
[1]
  IC50: 2270 µM
[2]
  IC50: 1 µM
  WT:NfsA: 2270
[6]; 20 μM and 100 μM, aerobic conditions
  Metabolism and binding by FACS, HCT-116-CYPOR cells (FIG. 4): minimal metabolism and binding
[6]; 20 μM and 100 μM, anoxic conditions
  Metabolism and binding by FACS, HCT-116-CYPOR cells, anoxia (FIG. 6): significant dose-dependent and reductase dependent increases in metabolism and binding
[6]; 20 μM or 100 μM, 0.2% oxygen
  Metabolism and binding by FACS, HCT-116-CYPOR cells, 0.2% oxygen (FIG. 5): Significant dose-dependent increases in metabolism
[6]; 20 μM or 100 μM, aerobic
  Metabolism and binding by FACS, HCT-116-CYPOR cells, aerobic (FIG. 5): negligible metabolism and binding
[6]; 20 μM or 100 μM, anoxia
  Metabolism and binding by FACS, HCT-116-CYPOR cells, anoxia (FIG. 5): Significant dose-dependent increases in metabolism
[7]
  Loss of viability for nfsA expressing HCT116 cells: 90%
[8]; cold EF5 9 mg/kg
  Concentration-time achieved in human plasma: 0.89 mM-hr
[8]; dose of 21 mg/kg injected
  Plasma AUC: 2 mM-hr
[8]; dose of 21 mg/kg
  Tolerability of injected dose: safely injected without any toxicities
